Laboratory results as given in patent US7091182B2, “Method for assisting in differential diagnosis and treatment of autistic syndromes” (Repligen Corporation, priority 1997, dated 2006).
“Also recorded” adds a separate entry of the source.

Legend:
[1] = tested on: children with autistic behavior; assay: Behavioral evaluation after secretin administration; format: in vivo, human
Source text: Prior to the secretion administration, each child underwent developmental/psychological evaluation. […] In addition, most underwent a structured evaluation including assessment of intelligence, language ability, adaptive function [Vineland Adaptive Behavior Scales]^53 and behavioral rating scales [Child Behavior Checklist]^54. A more specific measure directly related to autism, the Childhood Autism Rating Scale [CARS]^55, was also used.
The most recent 8 cases had developmental/psychological evaluations at the University of Maryland or at the Kennedy Krieger Institute prior to the secretin administration.
The number and type of evaluation techniques that were employed increased across subjects as did the degree of sophistication of the professional staff involved in the design and conduct of the evaluation approaches. Specifically, data on the first seven subjects consisted of brief clinical observations, parental report, analysis of videotapes, and reports of evaluations by professionals who had conducted routine assessments not specifically dictated by our research protocol. Whereas, data on the second eight subjects studied consisted of the same methods described above, as well as with the addition of direct observation of behavior employing a standard functional analysis of structured videotape samples (analyzed in random order by blind raters); standard assessments including Communication and Symbolic Behavior Scales (CSBS), Pre-School Language Scales—3 (PSLS), Bayley Scales of Infant Development: Second Edition, Vineland Adaptive Behavior Scales, Childhood Autism Rating Scale (CARS), and Behavior Observation System (BOS). Further, the evaluation team for the least eight subjects involved professionals from the areas of neuropsychology, behavioral psychology and developmental pediatrics from both the University of Maryland School of Medicine and the Kennedy Krieger Institute/Johns Hopkins University School of Medicine.

[2] = tested on: children with autistic behavior; assay: Blood levels of gastrointestinal peptide hormones and neurotransmitters prior to and 10 minutes after secretin stimulation; format: in vivo, human
Protocol: After fasting from midnight, upper gastrointestinal endoscopies were carried out the next morning under general anesthesia. All gastric juice was aspirated before passing the endoscope into the duodenum. The pancreatico-biliary juice was collected after positioning the endoscope distal to the ampulla of Vater. An ERCP catheter was placed into the channel of endoscope and the fluid was collected by moving the tip into the outcoming fluid and suctioning it into a syringe. The pancreas was then stimulated with secretin 2 IU/kg BW (Ferring Laboratories, Inc. Suffern, NY, USA) given intravenously within a minute. Three additional specimens were collected after the secretin injection within a 10-minute period. Blood samples were collected prior to and 10 minutes after secretin stimulation. In a subgroup of children, the effect of duodenal acidification was determined by measurement of blood secretin levels before and 4–5 minutes after washing the second part of the duodenum with 0.05M hydrochloric acid for 5 minutes. At the end of the procedure, biopsies were obtained of the small intestine, esophagus and stomach.
Blood samples were analyzed for the levels of gastrointestinal peptide hormones (Secretin, CCK, VIP, Peptide Y) and neurotransmitters (Serotonin, Substance P). All the assays were performed in the Interscience Institute (Inglewood, Calif.) specialized in gastrointestinal hormone measurements.

[3] = tested on: children with autistic behavior; assay: Evoked potential studies and SPECT imaging of the brain before and after secretin (Case 1); format: in vivo, human
Source text: Case 1. […], was the product of a full-term uncomplicated pregnancy. Development of language and social behavior proceeded normally until about 15 months of age. At that time they lost their expressive vocabulary and their social behavior deteriorated. They were clinically diagnosed with autism by a pediatric neurologist. A multidisciplinary evaluation changed the diagnosis to PDD not otherwise specified. […] Because of their chronic diarrhea and elevated antigliadin IgG antibody titer, they underwent an upper gastrointestinal endoscopy. […] Three weeks after the procedure their parent reported significant changes in their gastrointestinal symptoms and behavior. […] More dramatic changes occurred in their autistic behavior (Table 4). […] Eight months after the procedure they have still retained their cognitive gains.

[4] = tested on: children without behavioral abnormalities; adults; assay: Secretin stimulatory response (pancreatic juice output) in non-autistic children and adults; format: in vivo, human
Protocol: The time required to collect basal duodenal fluid samples (1–2 ml) prior to secretin administration was 2–5 minutes, which was similar to that of non-autistic controls. […] Published adult responses using duodenal intubation and extended periods of specimen collection vary between 1.5 and 4.9 ml/min^56,57. Six out of 7 autistic patients who had chronic loose stools had pancreatico-biliary secretion rates above 5 ml/min (FIG. 4). […] The highest rate of secretion was 10 ml/min in one child.

[5] = tested on: ovariectomized, estrogen-primed rats; conditions: cited from earlier work
[6] = tested on: patients with intrahepatic cholestasis; conditions: double-blind placebo-controlled multicentric trial; cited from earlier work

secretin
latest behavioral evaluation (diagnosis) ([1]; Case 1): changed from a low functioning autistic child to a social, non-autistic, speech delayed child; also recorded: changed from a low functioning autistic child to a social, non-autistic, speech-delayed child
changes in autistic behavior ([1]; Case 1, after first secretin dose): dramatic improvement in eye contact, alertness, expressive language and fine motor skills; also recorded: improvements in eye contact, alertness, expressive language, and fine motor skills
language and cognitive functions ([1]; Case 1, second single secretin infusion eight months later): further improvement in their language and cognitive functions
cognitive skills ([1]; Case 2, five weeks following a single dosage): progressive improvement in cognitive skills; also recorded: improved over a five weeks period
social behavior and language ([1]; Case 2, second dose 3 months later): further improvement in their social behavior and language
language and communication skills ([1]; Case 3, second infusion 3 months later): accelerated their improvement
language, social, and communication skills ([1]; Case 3, three weeks and two months after the procedure): significant improvements in language, social, and communication skills; also recorded: improved significantly
Progress after Secretin administration: eye contact ([1]; Case #1, within two months, % of the time, before: Minimal eye contact): Eye contact 75% of the time
Progress after Secretin administration: bowel movements ([1]; Case #1, within two months, before: Abnormal bowel movements): Normal bowel movements
Progress after Secretin administration: sleeping ([1]; Case #1, within two months, before: Consistent sleeping problems): Has slept through almost every night entirely
Progress after Secretin administration: potty training ([1]; Case #1, within two months, before: Diapers only): Completely potty trained
Progress after Secretin administration: imitating commands ([1]; Case #1, within two months, before: Did not imitate commands): Will imitate almost any multi-step command
Progress after Secretin administration: water consumption ([1]; Case #1, within two months, before: Excessive water consumption): Excessive water consumption - no change
Progress after Secretin administration: spinning episodes ([1]; Case #1, within two months, before: Infrequent (1–2 times/week)): No spinning episodes
Progress after Secretin administration: diet preferences ([1]; Case #1, within two months, before: Limited diet preferences): No change
Progress after Secretin administration: connections between language and objects ([1]; Case #1, within two months, before: No apparent connections): Many connections made between new language learned and objects. Recites
Progress after Secretin administration: flash cards ([1]; Case #1, within two months, before: No flash cards): 40–50 Flash cards
Progress after Secretin administration: focus on requested tasks ([1]; Case #1, within two months, before: No focus on requested tasks): Will sit and watch carefully. Will perform most tasks after watching once or
Progress after Secretin administration: interest in drawing ([1]; Case #1, within two months, before: No interest in drawing): Wants to draw constantly. Will draw complete face and name the parts as he
Progress after Secretin administration: response to request for gestures ([1]; Case #1, within two months, before: No response): Responds to all kinds of requests and spontaneously says these things themself.
Progress after Secretin administration: sentences ([1]; Case #1, within two months, before: No sentences): Short sentences, such as “I love you”, “I want juice”, “Good night mammy”
Progress after Secretin administration: words ([1]; Case #1, within two months, before: Two words): 100's of words - will repeat some aproximation at any word requested
Progress after Secretin administration: videos ([1]; Case #1, within two months, before: Watch videos): Now gets “involved” interactively with their videos. They will imitate the hand
autistic symptoms and cognitive, language, and social skills, share of responders ([1]; all children who received secretin): more than half of the children
Changes after Secretin: Activity level ([1]; case #2, time 1 week): Very energetic but has very good focus during
Changes after Secretin: Appetite ([1]; case #2, time 1 week): Eating more foods: 2–3 large meals per day:
Changes after Secretin: Movements ([1]; case #2, time 1 week): A decrease in most abnormal movements but
Changes after Secretin: Social interaction ([1]; case #2, time 1 week): Hugging therapists; better eye contact,
Changes after Secretin: Correct responses to drills ([1]; case #2, time 1 week, before: 50% correct responses): 75–80% correct responses
Changes after Secretin: Bowel movements ([1]; case #2, time 2–3 days): At first constipated for 2–3 days. then normal
Changes after Secretin: Receptive language, commands understood ([1]; case #2, time 3 weeks, before: 20–30% of commands): understands where they are going: understands 75%
Changes after Secretin: Fine motor ([1]; case #2, time 4 weeks): Putting together Legos: turns key in door; turns
Changes after Secretin: Gross motor ([1]; case #2, time 4 weeks): Starts to hang on monkey bars: goes down fire
Changes after Secretin: Sleep ([1]; case #2, time 1 day, before: 7–8 hours): 10–12 hours per night uninterrupted every night
Changes after Secretin: Alertness, concentration ([1]; case #2, time 2 days): Extremely alert: looking therapist directly in
Changes: Activity level ([1]; case #3): Less hyperactive. More settled. More attentive and
Changes: Alertness, concentration ([1]; case #3): Chewing clothing, hands, and licking have stopped.
Changes: Appetite ([1]; case #3): Normal diet seems to satisfy them more. No longer
Changes: Cognitive ([1]; case #3): Actions are more purposeful. Playing sequencing,
Changes: Eye contact ([1]; case #3): More eye contact. Seeks out attention and once
Changes: Fine motor skills ([1]; case #3): Now uses fork and spoon much more readily and
Changes: Sleep ([1]; case #3): Now goes to bed willing and happily. Takes great
Changes: Social interaction ([1]; case #3): Now has a friend at school. They participate actively in
Changes: Correct responses to drills/commands ([1]; case #3, before: 50% correct responses): Rarely guessing. Very tuned in. Perhaps 80% correct
Changes: Bowel movements ([1]; case #3, before: Loose stools or diarrhea): Normal bowel movement since week three
Changes: Receptive language ([1]; case #3, before: understood 50% of commands): Understands almost everything. Understands two-step
increase in the scores on the Vineland Scale of Adaptive Behavior ([1]; case three, immediately after secretin administration): 22%
delayed reaction reported by the parents ([1]; case three, one-to-two months later): improved eye contact, increased focus on tasks, as well as improvements in language
language skills ([1]; case two, after the secretin injection): significant improvement in language skills
Vineland Scale of Adaptive Behaviors ([1]; child SG): increase in all five areas tested
increase in the CSBS ([1]; child SG): 25%
increases in language skills ([1]; child SG): six-to-nine month
increase in language skills measured by the PSLS (equivalent in development) ([1]; child WB): five months to one year
increase on the Bayley Scale of Development ([1]; child WB): 11 point
increase on the CSBS scale ([1]; child WB, within four months): 37%
autistic symptoms ([1]; each of the three cases): produced relief from autistic symptoms
cognitive, social, language, and age appropriate skills ([1]; first seven subjects, parental report and non-protocol evaluations): dramatic changes in cognitive, social, language, and age appropriate skills were reported for four of the first seven subjects
decrease of activity level measured by actometers ([1]; subject one): 50%
increase on the BOS ([1]; subject one): 22%
Serotonin level after secretin injection ([2]; Group I (chronic loose stools/diarrhea)): >50% elevation
Serotonin level after secretin injection ([2]; Group II (no diarrhea)): <50% elevation
blood level of CCK ([2]; after secretin injection): no change at all
blood level of VIP ([2]; after secretin injection): no change at all
blood level of substance P ([2]; after secretin injection): no change at all
blood serotonin level ([2]; children with chronic diarrhea, ten minutes after secretin injection, fasting): significant elevation
blood level of Peptide Y ([2]; four children, before or after secretin administration): no abnormality
repeat evoked potential studies ([3]; Case 1, eight months after secretin administration): only a minimal delay in responses
SPECT, cerebral perfusion / blood flow ([3]; Case 1, follow-up versus pre-secretin study): marked improvement in the cerebral blood flow; also recorded: less marked decrease in perfusion of right posterior parietal and right temporal lobes
average stimulatory response for secretin ([4]; children 3–7 years of age, own data, same endoscopic collection technique): 1 to 2 mL/min
typical pancreatic juice output ([4]; children without behavioral abnormalities, ages 1 to 6): 1 to 2 mL/min
circadian rise of LH secretion [5]: strikingly effective in increasing
reduction of serum bilirubin levels, secretin versus placebo [6]: no statistically significant differences
